Measurements reported in patent publication US8481028B2, “Compositions for preparing a coffee beverage comprising hydrolysed chlorogenic acid” (Nestec S.A., priority 2008, dated 2013).

Assays:
[1] = system: Lactobacillus johnsonii (CNCM I-1225) fresh cells; experiment: Treatment of NESCAFE PROTECT with L. johnsonii fresh cells, HPLC of chlorogenic and phenolic acids
Method: (§1) Cells of L. johnsonii (CNCM I-1225) were grown (7.0 E08 cfu/ml) and centrifuged (5000 g, 10 min), the pellets were resuspended in phosphate buffer (50 mM, pH 7.0) at a concentration of 0.61 g/ml. […] Samples were withdrawn at different reaction times, centrifuged (3000 g, 5 min) and filtered through 0.45 μm pore size syringe filters (Millipore SLHA 025 BS) and analysed by HPLC.
A reaction control was run in parallel under the same reaction conditions but without bacteria.
(§2) Coffee samples were diluted to 1% w/w and analyzed by RP-HPLC on a CC 250/4 Nucleosil 100-5-C18 column (Macherey-Nagel). The eluent system was Millipore water, 0.1% TFA and CH3CN at a flow rate of 1 mL/min. The method allowed the simultaneous determination of caffeoyl quinic acids (CQA), feruloyl quinic acids (FQA), di-caffeoyl quinic acids (diCQA), feruloyl quinic acid-lactones, caffeic acid (CA) and ferulic acid (FA) (absorbance at 325 nm) using external standard calibration curves. Results were expressed relative to the reference at time 0 (t0) or to the reference at the same time without bacteria.

[2] = system: Lactobacillus johnsonii (CNCM I-1225) extract (lysed cells); experiment: Treatment of NESCAFE PROTECT with L. johnsonii extract (lysed cells), HPLC; assay type: biochemical
Method: as §1, with “g/ml. The cells were then lysed using the glass-beads method. 600 μl of cells preparation were put in screw-cap tubes and 600 μl of glass-beads were added at 0° C. The tubes were then put into a Mini-Beadbeater for 1 min of intense shaking, cooled in ice, and put another 1 min in the Mini-Beadbeater.” for “g/ml.”, “min),” for “min) and”
as §2

[3] = system: spray-dried preparation of Lactobacillus johnsonii (CNCM I-1225); experiment: Treatment of NESCAFE PROTECT with spray-dried preparation of L. johnsonii, HPLC
Method: To this solution, 10 mg of a spray-dried preparation of Lactobacillus johnsonii (CNCM I-1225) (3.3 E9 cfu/g) were added. The mixture was then incubated at 37° C. and samples were withdrawn at different reaction times. After centrifugation (3000 g, 5 min) and filtration (0.45 μm pore size syringe filters, Millipore SLHA 025 BS) the samples were analysed by HPLC.
as §2

[4] = system: spray-dried preparation of Lactobacillus johnsonii (CNCM I-1225); experiment: Treatment of green coffee extract with spray-dried preparation of L. johnsonii, HPLC
Method: 30 mg of a dried green coffee extract was dissolved in 1 ml phosphate buffer (50 mM, pH 7.0) or in 1 ml water. To this solution, 10 mg of a spray-dried preparation of Lactobacillus johnsonii (3.3 E9 cfu/g) was added. The mixture was then incubated at 37° C. and samples were withdrawn at different reaction times. After centrifugation (3000 g, 5 min) and filtration (0.45 μm pore size syringe filters, Millipore SLHA 025 BS) the samples were analysed by HPLC.
as §2

[5] = system: concentrated preparation of Lactobacillus johnsonii (CNCM I-1225); experiment: Treatment of NESCAFE with concentrated preparation of L. johnsonii, HPLC
Method: 400 mg of NESCAFE SPECIAL FILTRE® (a dried extract of roasted coffee beans) were dissolved in 1 ml of boiling water and the solution was cooled to 37° C. at room temperature. To 250 μl of this coffee solution, different amounts of concentrated preparation of Lactobacillus johnsonii (50 μl, 100 μl, 350 μl, 750 μl) were added and the volume was adjusted to 1 ml with water. The mixtures were than incubated at 37° C. for 2 h and 4 h. After centrifugation (3000 g, 5 min) and filtration the samples were analysed by HPLC.
as §2

[6] = system: Lactobacillus johnsonii (CNCM I-1225); experiment: Treatment of coffee extracts with bacteria cells (L. johnsonii), HPLC
Method: as §2
(§3) Tested strains were harvested (centrifugation at 5000 g for 10 min) after having well reached stationary phase, corresponding to 16 hours of incubation in culture medium at 37° C. in anaerobic atmosphere without agitation. For a first activation of the strains, frozen stock cultures were inoculated in fresh media and grown overnight. This pre-culture was used to inoculate the culture.
(§4) After culture of bacteria and centrifugation, the pellets were resuspended in phosphate buffer (pH 7.0) at a concentration of 0.61 g/ml. To 200 μl of this cells preparation, 800 μl of a coffee solution (3%) was added and the mixture was incubated at 37° C. for 4 h, 16 h and 24 h.

[7] = system: Bifidobacterium lactis BB12 (CNCM I-3446); experiment: Treatment of coffee extracts with bacteria cells (B. lactis), HPLC
Method: as §2, §3, §4

[8] = system: Chlorogenate esterase; experiment: Incubation of coffee extracts with chlorogenate esterase, HPLC; assay type: biochemical, Aspergillus japonicus
Method: as §2
Chlorogenate esterase (24 U/g), derived from Aspergillus japonicus (Kikkoman, Japan). Tannase from Aspergillus oryzae (Kikkoman, Japan) Preparation of Bacteria Cells
A solution of chlorogenate esterase (25 mg) in 200 μl phosphate buffer (pH 7.0) was added to 800 μl of a coffee solution (3%). The mixture was then incubated at 37° C. for 4 h, 16 h and 24 h. After reaction time, the enzymatic activity was stopped by heat treatment (3 min, 90° C.) and the mixture was filtered before analysis.

[9] = NESCAFE PROTECT + Lactobacillus johnsonii, 4 h
[10] = NESCAFE PROTECT + Lactobacillus johnsonii, 16 h
[11] = NESCAFE PROTECT + Lactobacillus johnsonii, 24 h
[12] = green coffee extract + Lactobacillus johnsonii, 4 h
[13] = green coffee extract + Lactobacillus johnsonii, 16 h
[14] = green coffee extract + Lactobacillus johnsonii, 24 h
[15] = NESCAFE PROTECT + Bifidobacterium lactis, 4 h
[16] = NESCAFE PROTECT + Bifidobacterium lactis, 16 h
[17] = NESCAFE PROTECT + Bifidobacterium lactis, 24 h
[18] = green coffee extract + Bifidobacterium lactis, 4 h
[19] = green coffee extract + Bifidobacterium lactis, 16 h
[20] = green coffee extract + Bifidobacterium lactis, 24 h
[21] = NESCAFE PROTECT + Chlorogenate esterase, 4 h
[22] = NESCAFE PROTECT + Chlorogenate esterase, 16 h
[23] = NESCAFE PROTECT + Chlorogenate esterase, 24 h
[24] = green coffee extract + Chlorogenate esterase, 4 h
[25] = green coffee extract + Chlorogenate esterase, 16 h
[26] = green coffee extract + Chlorogenate esterase, 24 h

## COc1cc(/C=C/C(=O)O)ccc1O [FA, ferulic acid]
[1]; 6 h, cell preparation 100 uL
  Concentration in % relative to untreated reference at t = 0: 4594%
[1]; 6 h, cell preparation 350 uL
  Concentration in % relative to untreated reference at t = 0: 7234%
[1]; 6 h, cell preparation 750 uL
  Concentration in % relative to untreated reference at t = 0: 7776%
[1]; 24 h, cell preparation 100 uL
  Concentration in % relative to untreated reference at t = 0: 6691%
[1]; 24 h, cell preparation 350 uL
  Concentration in % relative to untreated reference at t = 0: 8861%
[1]; 24 h, cell preparation 750 uL
  Concentration in % relative to untreated reference at t = 0: 8845%
[2]; 2 h, cell preparation 100.0 uL
  Concentration in % relative to untreated reference at t = 0: 5581%
[2]; 2 h, cell preparation 350.0 uL
  Concentration in % relative to untreated reference at t = 0: 7771%
[2]; 6 h, cell preparation 100.0 uL
  Concentration in % relative to untreated reference at t = 0: 6960%
[2]; 6 h, cell preparation 350.0 uL
  Concentration in % relative to untreated reference at t = 0: 9720%
[3]; 2 h
  % relative to untreated control at t = 0: 1109%
[3]; 6 h
  % relative to untreated control at t = 0: 2183%
[3]; 24 h
  % relative to untreated control at t = 0: 3686%
[4]; 4 h
  % relative to untreated control at t = 0: 961%
[4]; 6 h
  % relative to untreated control at t = 0: 1429%
[4]; 16 h
  % relative to untreated control at t = 0: 1963%
[4]; 24 h
  % relative to untreated control at t = 0: 2432%
[5]; cell amount 50 μL/1 mL, 2 h
  % relative to untreated control at t = 0: 1509%
[5]; cell amount 50 μL/1 mL, 4 h
  % relative to untreated control at t = 0: 786%
[5]; cell amount 100 μL/1 mL, 2 h
  % relative to untreated control at t = 0: 2468%
[5]; cell amount 100 μL/1 mL, 4 h
  % relative to untreated control at t = 0: 1266%
[5]; cell amount 350 μL/1 mL, 2 h
  % relative to untreated control at t = 0: 5327%
[5]; cell amount 350 μL/1 mL, 4 h
  % relative to untreated control at t = 0: 2408%
[5]; cell amount 750 μL/1 mL, 2 h
  % relative to untreated control at t = 0: 7586%
[5]; cell amount 750 μL/1 mL, 4 h
  % relative to untreated control at t = 0: 3281%
[6]; [9]
  % relative to untreated control at t = 0: 4051%
[6]; [10]
  % relative to untreated control at t = 0: 5226%
[6]; [11]
  % relative to untreated control at t = 0: 5504%
[6]; [12]
  % relative to untreated control at t = 0: 4607%
[6]; [13]
  % relative to untreated control at t = 0: 7192%
[6]; [14]
  % relative to untreated control at t = 0: 7597%
[7]; [15]
  % relative to untreated control at t = 0: 3065%
[7]; [16]
  % relative to untreated control at t = 0: 4518%
[7]; [17]
  % relative to untreated control at t = 0: 5144%
[7]; [18]
  % relative to untreated control at t = 0: 5020%
[7]; [19]
  % relative to untreated control at t = 0: 6970%
[7]; [20]
  % relative to untreated control at t = 0: 7105%
[8]; [21]
  % relative to untreated control at t = 0: 2794%
[8]; [22]
  % relative to untreated control at t = 0: 5140%
[8]; [23]
  % relative to untreated control at t = 0: 5518%
[8]; [24]
  % relative to untreated control at t = 0: 2620%
[8]; [25]
  % relative to untreated control at t = 0: 5685%
[8]; [26]
  % relative to untreated control at t = 0: 6293%

## caffeoyl quinic acids [CQA]
[1]; 6 h, cell preparation 100 uL
  Concentration in % relative to untreated reference at t = 0: 39%
[1]; 6 h, cell preparation 350 uL
  Concentration in % relative to untreated reference at t = 0: 14%
[1]; 6 h, cell preparation 750 uL
  Concentration in % relative to untreated reference at t = 0: 3%
[1]; 24 h, cell preparation 100 uL
  Concentration in % relative to untreated reference at t = 0: 15%
[1]; 24 h, cell preparation 350 uL
  Concentration in % relative to untreated reference at t = 0: 3%
[1]; 24 h, cell preparation 750 uL
  Concentration in % relative to untreated reference at t = 0: 0%
[2]; 2 h, cell preparation 100.0 uL
  Concentration in % relative to untreated reference at t = 0: 32%
[2]; 2 h, cell preparation 350.0 uL
  Concentration in % relative to untreated reference at t = 0: 10%
[2]; 6 h, cell preparation 100.0 uL
  Concentration in % relative to untreated reference at t = 0: 14%
[2]; 6 h, cell preparation 350.0 uL
  Concentration in % relative to untreated reference at t = 0: 6%
[3]; 2 h
  % relative to untreated control at t = 0: 73%
[3]; 6 h
  % relative to untreated control at t = 0: 67%
[3]; 24 h
  % relative to untreated control at t = 0: 32%
[4]; 4 h
  % relative to untreated control at t = 0: 77%
[4]; 6 h
  % relative to untreated control at t = 0: 69%
[4]; 16 h
  % relative to untreated control at t = 0: 58%
[4]; 24 h
  % relative to untreated control at t = 0: 50%
[5]; cell amount 50 μL/1 mL, 2 h
  % relative to untreated control at t = 0: 92%
[5]; cell amount 50 μL/1 mL, 4 h
  % relative to untreated control at t = 0: 76%
[5]; cell amount 100 μL/1 mL, 2 h
  % relative to untreated control at t = 0: 80%
[5]; cell amount 100 μL/1 mL, 4 h
  % relative to untreated control at t = 0: 60%
[5]; cell amount 350 μL/1 mL, 2 h
  % relative to untreated control at t = 0: 46%
[5]; cell amount 350 μL/1 mL, 4 h
  % relative to untreated control at t = 0: 33%
[5]; cell amount 750 μL/1 mL, 2 h
  % relative to untreated control at t = 0: 25%
[5]; cell amount 750 μL/1 mL, 4 h
  % relative to untreated control at t = 0: 17%
[6]; [9]
  % relative to untreated control at t = 0: 33%
[6]; [10]
  % relative to untreated control at t = 0: 13%
[6]; [11]
  % relative to untreated control at t = 0: 13%
[6]; [12]
  % relative to untreated control at t = 0: 42%
[6]; [13]
  % relative to untreated control at t = 0: 15%
[6]; [14]
  % relative to untreated control at t = 0: 12%
[7]; [15]
  % relative to untreated control at t = 0: 97%
[7]; [16]
  % relative to untreated control at t = 0: 81%
[7]; [17]
  % relative to untreated control at t = 0: 80%
[7]; [18]
  % relative to untreated control at t = 0: 96%
[7]; [19]
  % relative to untreated control at t = 0: 79%
[7]; [20]
  % relative to untreated control at t = 0: 74%
[8]; [21]
  % relative to untreated control at t = 0: 5%
[8]; [22]
  % relative to untreated control at t = 0: 3%
[8]; [23]
  % relative to untreated control at t = 0: 3%
[8]; [24]
  % relative to untreated control at t = 0: 3%
[8]; [25]
  % relative to untreated control at t = 0: 2%
[8]; [26]
  % relative to untreated control at t = 0: 2%
